Assay results reported in patent publication US20250129078A1, “ERBB2 INHIBITORS” (Cogent Biosciences, Inc., priority 2023, published 2025).

Columns and labels:
ErbB2 V777L = ErbB2 V777L (Homo sapiens (Human), UniProt P04626, V777L); assay: ErbB enzyme assay (CisBio HTRF-KinEASE-TK), ErbB2 V777L; type: biochemical
How it was run: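 HTRF KinEASE-TK tyrosine-kinase read-out of substrate phosphorylation after a final 1 h at ambient temperature, from the 655/620 nm emission ratio.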

EGFR WT = EGFR WT (Homo sapiens (Human), UniProt P00533); assay: ErbB enzyme assay (CisBio HTRF-KinEASE-TK), EGFR WT; type: biochemical; conditions: ATP at Km (25 μM), 1 h incubation
Chain of EGFR WT (P00533 25-1210): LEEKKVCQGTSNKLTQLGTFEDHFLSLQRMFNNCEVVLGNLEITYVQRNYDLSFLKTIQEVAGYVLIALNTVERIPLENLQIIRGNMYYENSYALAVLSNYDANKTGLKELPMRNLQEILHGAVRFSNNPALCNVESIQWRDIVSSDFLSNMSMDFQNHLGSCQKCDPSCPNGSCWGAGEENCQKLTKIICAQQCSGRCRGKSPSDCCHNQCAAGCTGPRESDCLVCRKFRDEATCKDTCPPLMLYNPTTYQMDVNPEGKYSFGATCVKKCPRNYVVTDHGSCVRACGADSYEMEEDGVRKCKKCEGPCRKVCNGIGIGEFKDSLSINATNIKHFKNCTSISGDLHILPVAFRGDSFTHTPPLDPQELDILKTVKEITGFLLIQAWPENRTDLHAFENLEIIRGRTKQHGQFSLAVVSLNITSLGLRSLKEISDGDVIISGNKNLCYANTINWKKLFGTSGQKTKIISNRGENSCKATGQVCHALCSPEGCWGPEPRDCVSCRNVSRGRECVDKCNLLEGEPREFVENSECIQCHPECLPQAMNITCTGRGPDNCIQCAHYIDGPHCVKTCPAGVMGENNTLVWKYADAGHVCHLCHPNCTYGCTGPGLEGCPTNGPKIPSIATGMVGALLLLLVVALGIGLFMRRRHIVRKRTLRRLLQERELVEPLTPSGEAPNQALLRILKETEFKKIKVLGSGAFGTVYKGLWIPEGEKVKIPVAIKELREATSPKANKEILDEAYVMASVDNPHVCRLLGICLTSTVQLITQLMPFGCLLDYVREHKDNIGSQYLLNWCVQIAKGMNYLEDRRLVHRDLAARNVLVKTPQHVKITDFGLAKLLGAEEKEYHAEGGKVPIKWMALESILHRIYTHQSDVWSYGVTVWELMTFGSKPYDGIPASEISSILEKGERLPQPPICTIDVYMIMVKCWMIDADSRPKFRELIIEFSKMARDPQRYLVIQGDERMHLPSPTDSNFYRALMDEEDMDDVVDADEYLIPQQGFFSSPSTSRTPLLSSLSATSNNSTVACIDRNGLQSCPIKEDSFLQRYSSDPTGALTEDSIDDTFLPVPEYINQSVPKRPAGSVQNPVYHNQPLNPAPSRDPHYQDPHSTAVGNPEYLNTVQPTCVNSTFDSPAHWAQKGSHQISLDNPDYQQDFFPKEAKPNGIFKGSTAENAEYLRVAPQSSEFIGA
How it was run: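 Tyrosine kinase HTRF, 1 h RT reaction → quench (Sa-XL665/TK-Ab-Cryptate) → 1 h RT → 655/620 ratio.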

Chain of ErbB2 V777L (P04626 23-1255 V777L): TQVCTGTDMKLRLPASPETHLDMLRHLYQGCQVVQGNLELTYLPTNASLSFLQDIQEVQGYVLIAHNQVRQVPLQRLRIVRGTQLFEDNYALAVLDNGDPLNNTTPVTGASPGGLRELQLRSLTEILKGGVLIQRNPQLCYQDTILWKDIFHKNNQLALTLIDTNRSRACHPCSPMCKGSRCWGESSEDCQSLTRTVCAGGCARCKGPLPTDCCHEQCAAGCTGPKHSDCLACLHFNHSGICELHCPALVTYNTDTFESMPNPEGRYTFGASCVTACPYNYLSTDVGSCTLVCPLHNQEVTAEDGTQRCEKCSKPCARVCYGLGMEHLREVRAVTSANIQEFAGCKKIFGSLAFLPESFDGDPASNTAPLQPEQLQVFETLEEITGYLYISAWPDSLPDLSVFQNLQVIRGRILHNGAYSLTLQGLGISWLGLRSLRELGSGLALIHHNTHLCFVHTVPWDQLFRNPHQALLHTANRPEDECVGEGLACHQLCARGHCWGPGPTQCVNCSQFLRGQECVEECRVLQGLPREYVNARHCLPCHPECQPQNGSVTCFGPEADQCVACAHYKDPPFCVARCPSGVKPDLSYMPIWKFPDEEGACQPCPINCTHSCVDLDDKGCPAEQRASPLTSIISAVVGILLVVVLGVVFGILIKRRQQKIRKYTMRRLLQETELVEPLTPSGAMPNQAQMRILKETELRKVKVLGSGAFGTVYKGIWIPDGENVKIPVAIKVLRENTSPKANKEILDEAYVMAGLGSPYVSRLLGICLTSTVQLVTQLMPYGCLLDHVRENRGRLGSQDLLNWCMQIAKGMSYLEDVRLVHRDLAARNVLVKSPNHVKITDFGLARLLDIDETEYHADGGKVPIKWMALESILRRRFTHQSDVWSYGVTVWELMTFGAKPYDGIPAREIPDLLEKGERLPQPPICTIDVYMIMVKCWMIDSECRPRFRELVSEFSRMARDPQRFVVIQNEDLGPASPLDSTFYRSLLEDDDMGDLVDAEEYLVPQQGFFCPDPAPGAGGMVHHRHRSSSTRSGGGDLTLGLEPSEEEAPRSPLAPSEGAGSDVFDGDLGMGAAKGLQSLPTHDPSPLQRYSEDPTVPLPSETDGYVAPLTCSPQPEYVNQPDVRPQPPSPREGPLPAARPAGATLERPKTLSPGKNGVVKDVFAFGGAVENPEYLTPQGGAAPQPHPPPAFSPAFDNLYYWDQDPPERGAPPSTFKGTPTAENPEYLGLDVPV

Row | IC50 (ErbB2 V777L) | IC50 (EGFR WT) | Compound
1 | 500 to 1000 nM | ≥ 1000 nM | C=C(F)C(=O)N1CCN(c2ccc3ncnc(Nc4ccc(Oc5ccc6c(c5)nnn6C)c(C)c4)c3n2)C[C@H]1COC [Compound 362, (S)-2-fluoro-1-(2-(methoxymethyl)-4-(4-((3-methyl-4-((1-methyl-1H-benzo[d][1,2,3]triazol-5-yl)oxy)phenyl)amino)pyrido[3,2-d]pyrimidin-6-yl)piperazin-1-yl)prop-2-en-1-one]
2 | 500 to 1000 nM | ≥ 1000 nM | C=C(COC)C(=O)N1CCN(c2ccc3ncnc(Nc4ccc(Oc5ccc6c(c5)nnn6C)c(C)c4)c3n2)CC1 [Compound 366, 2-(methoxymethyl)-1-(4-(4-((3-methyl-4-((1-methyl-1H-benzo[d][1,2,3]triazol-5-yl)oxy)phenyl)amino)pyrido[3,2-d]pyrimidin-6-yl)piperazin-1-yl)prop-2-en-1-one]
3 | 50 to 100 nM | 100 to 500 nM | C=CC(=O)N1CCN(c2ccc3ncnc(Nc4cc(C)c(Oc5ccc6c(c5)ncn6C(F)F)cc4OC)c3n2)CC1 [Compound 370, 1-(4-(4-((4-((1-(difluoromethyl)-1H-benzo[d]imidazol-5-yl)oxy)-2-methoxy-5-methylphenyl)amino)pyrido[3,2-d]pyrimidin-6-yl)piperazin-1-yl)prop-2-en-1-one]
4 | 100 to 500 nM | 500 to 1000 nM | C=CC(=O)N1CCN(c2nc3c(Nc4ccc(Oc5ccc6c(c5)nnn6C)c(C)c4)ncnc3cc2C)CC1 [Compound 374, 1-(4-(7-methyl-4-((3-methyl-4-((1-methyl-H-benzo[d][1,2,3]triazol-5-yl)oxy)phenyl)amino)pyrido[3,2-d]pyrimidin-6-yl)piperazin-1-yl)prop-2-en-1-one]
5 | 100 to 500 nM | 100 to 500 nM | C=CC(=O)N1CCC(Oc2ncc3ncnc(Nc4ccc(Oc5ccn6ncnc6c5)c(C)c4)c3n2)C1 (centres unmarked) [Compound 377, 1-(3-((8-((4-([1,2,4]triazolo[1,5-a]pyridin-7-yloxy)-3-methylphenyl)amino)pyrimido[5,4-d]pyrimidin-2-yl)oxy)pyrrolidin-1-yl)prop-2-en-1-one]
6 | 50 to 100 nM | ≥ 1000 nM | C=CC(=O)N(C)[C@H]1C[C@H](Oc2ncc3ncnc(Nc4ccc(Oc5ccc6c(c5)ncn6C)c(C)c4)c3n2)C1 [Compound 382, N-methyl-N-((1r,3r)-3-((8-((3-methyl-4-((1-methyl-1H-benzo[d]imidazol-5-yl)oxy)phenyl)amino)pyrimido[5,4-d]pyrimidin-2-yl)oxy)cyclobutyl)acrylamide]
7 | 50 to 100 nM | ≥ 1000 nM | C=CC(=O)N(C)CCOc1ncc2ncnc(Nc3ccc(Oc4ccc5c(c4)ncn5C)c(C)c3)c2n1 [Compound 384, N-methyl-N-(2-((8-((3-methyl-4-((1-methyl-1H-benzo[d]imidazol-5-yl)oxy)phenyl)amino)pyrimido[5,4-d]pyrimidin-2-yl)oxy)ethyl)acrylamide]
8 | 50 to 100 nM | 100 to 500 nM | C=CC(=O)N(C)[C@H]1C[C@H](Oc2ncc3ncnc(Nc4ccc(Oc5cc(F)c6c(c5)ncn6C)c(C)c4)c3n2)C1 [Compound 386, N-((1r,3r)-3-((8-((4-((7-fluoro-1-methyl-1H-benzo[d]imidazol-5-yl)oxy)-3-methylphenyl)amino)pyrimido[5,4-d]pyrimidin-2-yl)oxy)cyclobutyl)-N-methylacrylamide]
9 | 50 to 100 nM | 100 to 500 nM | C=CC(=O)N(C)[C@H]1C[C@@H](Oc2ncc3ncnc(Nc4ccc(Oc5cc(F)c6c(c5)ncn6C)c(C)c4)c3n2)C1 [Compound 387, N-((1s,3s)-3-((8-((4-((7-fluoro-1-methyl-1H-benzo[d]imidazol-5-yl)oxy)-3-methylphenyl)amino)pyrimido[5,4-d]pyrimidin-2-yl)oxy)cyclobutyl)-N-methylacrylamide]
10 | 500 to 1000 nM | 500 to 1000 nM | C=CC(=O)N1[C@@H]2CC[C@H]1C[C@@H](Oc1ncc3ncnc(Nc4ccc(Oc5ccc6c(c5)ncn6C)c(C)c4)c3n1)C2 [Compound 391, 1-((1R,3r,5S)-3-((8-((3-methyl-4-((1-methyl-1H-benzo[d]imidazol-5-yl)oxy)phenyl)amino)pyrimido[5,4-d]pyrimidin-2-yl)oxy)-8-azabicyclo[3.2.1]octan-8-yl)prop-2-en-1-one]
